Source: paper PMC10692721, “Drug discovery for heart failure targeting myosin-binding protein C” (The Journal of Biological Chemistry, 2023)

Assays:
[1] = tested on: FMAL-actin plus TMR-cC0-C2; assay: Selleck library HTS, 473 nm excitation (FLT of FMAL-actin with TMR-cC0-C2, FLT-FRET); type: binding, human; conditions: for 473-nm Δτ, Repeat 1 / 473-nm Δτ, Repeat 2: initial screen, 30 μM compound; for 473-nm z-score (based on avg Δτ): robust z-score, hit threshold ±4, 30 μM compound
Method: (§1) Fluorescence lifetime (FLT) measurements were acquired using a high-throughput FLT plate reader (Fluorescence Innovations, Inc) ([14], [27]), provided by Photonic Pharma LLC. […] The observed waveforms were analyzed as described previously ([15], [28]).
(§2) In total, 50 nl of each solution was dispensed in DMSO using an automated Echo 550 acoustic liquid dispenser (Labcyte). Compounds were formatted into the assay plates, at a final concentration of 30 μM, with the first two and second to last columns loaded with DMSO only (compound-free controls). In the final column, 30 μM of suramin was loaded as a positive control (tool compound). These assay plates were then heat-sealed using a PlateLoc Thermal Microplate Sealer (Agilent Technologies) and stored at −20 °C. Before screening, compound plates were equilibrated to room temperature (∼25 °C). […] Plates were incubated at room temperature for 60 min before recording the data with the fluorescence lifetime plate reader.
After fitting the waveforms with a single exponential decay to quantify donor FLT, the change in FLT (Δτ) was computed by performing a moving median subtraction in the order the plate was scanned with a window size of half a plate row […]. The reasons for this are twofold. Firstly, plate gradients are often observed due to the heating of the digitizer during acquisition.
To account for the necessity to correct for plate gradients in the computation of E, the median τDMSO prior to the application of the moving median correction was added to each well’s Δτ value to recover a rescaled value of τ.

TMR-cC0-C2 = assay: Selleck library HTS, 532 nm excitation (FLT of TMR-cC0-C2 in presence of FMAL-actin); type: binding, human; conditions: for 532-nm Δτ, Repeat 1 / 532-nm Δτ, Repeat 2: initial screen, 30 μM compound; for 532-nm z-score (based on avg Δτ): robust z-score, hit threshold ±4, 30 μM compound
Method: as §1, §2
Hits that exceeded the z-score hit criteria in the donor-only screen were excluded from consideration. To remove compounds with confounding fluorescence properties, a similarity index (SI, specifically the cosine distance, Equation 5) was computed using data from the SUPR instrument by comparing a region (500–540 nm) of the donor-only spectrum (I^(a)) for each well to that of the plate-wide average DMSO spectrum (I^(b)) in the same wavelength band ([29]). Compounds that exceeded an SI robust z-score of 4 were deemed likely fluorescent compounds and removed from consideration.(5) SI=1−∑Ii(a).Ii(b)/∑Ii(a).Ii(a)∑Ii(b).Ii(b)

Compound | 473-nm Δτ, Repeat 1 [1] [ns] | 473-nm Δτ, Repeat 2 [1] [ns] | 473-nm z-score (based on avg Δτ) [1] | 532-nm Δτ, Repeat 1 (TMR-cC0-C2) [ns] | 532-nm Δτ, Repeat 2 (TMR-cC0-C2) [ns] | 532-nm z-score (based on avg Δτ) (TMR-cC0-C2)
CC1(C)S[C@@H]2[C@H](NC(=O)[C@H](N)c3ccccc3)C(=O)N2[C@H]1C(=O)O [Ampicillin sodium] | 0.184 | 0.161 | 9.70 | 0.003 | 0.007 | 0.34
CC1(C)[C@@H](O[C@H]2O[C@H](C(=O)O)[C@@H](O)[C@H](O)[C@H]2O[C@@H]2O[C@H](C(=O)O)[C@@H](O)[C@H](O)[C@H]2O)CC[C@]2(C)[C@H]3C(=O)C=C4[C@@H]5C[C@@](C)(C(=O)O)CC[C@]5(C)CC[C@@]4(C)[C@]3(C)CC[C@@H]12.N.N [Diammonium glycyrrhizinate] | 0.077 | 0.080 | 4.42 | 0.022 | 0.017 | 1.22
COc1cc2nc(N3CCN(C(=O)C4COc5ccccc5O4)CC3)nc(N)c2cc1OC (stereo not drawn) [Doxazosin] | -0.266 | -0.231 | -13.87 | 0.125 | 0.126 | 7.70
CC1=NN(c2ccc(C)c(C)c2)C(=O)/C1=N\Nc1cccc(-c2cccc(C(=O)O)c2)c1O [Eltrombopag olamine] | 0.270 | 0.162 | 12.13 | -0.267 | -0.418 | -20.87
CCC(=O)c1c(O)cc(O)cc1O [Flopropione] | -0.335 | -0.210 | -15.21 | -0.062 | -0.073 | -4.10
C[C@H](CCC(=O)O)[C@H]1CC[C@H]2[C@@H]3C[C@H](O)[C@@H]4C[C@H](O)CC[C@]4(C)[C@H]3CC[C@]12C [Hyodeoxycholic acid (HDCA), Hyodeoxycholic acid] | 0.111 | 0.072 | 5.17 | -0.021 | -0.120 | -4.27
CO[C@@]1(NC(=O)C(C(=O)O)c2ccc(O)cc2)C(=O)N2C(C(=O)O)=C(CSc3nnnn3C)CO[C@@H]21 (stereo partly drawn) [Latamoxef sodium] | 0.128 | 0.049 | 4.99 | -0.050 | -0.037 | -2.62
O=c1cc(-c2ccc(O)c(O)c2)oc2cc(O)cc(O)c12 [Luteolin] | -0.309 | -0.214 | -14.58 | -0.277 | -0.302 | -17.63
Cc1ccc(NC(=O)c2ccc(CN3CCN(C)CC3)cc2)cc1Nc1nc(-c2cccnc2)cs1 [Masitinib (AB1010), Masitinib] | -0.336 | -0.197 | -14.87 | -0.071 | -0.082 | -4.66
O=C(O)c1cc(/N=N/c2ccc(O)c(C(=O)O)c2)ccc1O [Olsalazine Sodium] | 0.202 | 0.096 | 8.38 | -0.057 | -0.123 | -5.46
CN(C)[C@@H]1C(O)=C(C(N)=O)C(=O)[C@@]2(O)C(O)=C3C(=O)c4c(O)cccc4[C@@](C)(O)[C@H]3[C@H](O)[C@@H]12 [Oxytetracycline (Terramycin), Oxytetracycline] | 0.175 | 0.122 | 8.34 | -0.019 | -0.057 | -2.29
Nc1ccc2cc3ccc(N)cc3nc2c1 [Proflavine hemisulfate] | 0.430 | 0.337 | 21.48 | -0.016 | -0.080 | -2.91
C=CC1=C(C)c2cc3[nH]c(cc4nc(cc5[nH]c(cc1n2)c(C)c5CCC(=O)O)C(CCC(=O)O)=C4C)c(C)c3C=C [Protoporphyrin IX] | 0.144 | 0.076 | 6.21 | 0.067 | 0.016 | 2.58
CN1CCCN=C1/C=C/c1cccs1 [Pyrantel pamoate] | 0.313 | 0.250 | 15.79 | -0.043 | -0.100 | -4.32
O=C(c1ccc(OCCN2CCCCC2)cc1)c1c(-c2ccc(O)cc2)sc2cc(O)ccc12 [Raloxifene] | -0.490 | -0.307 | -22.27 | -0.025 | -0.147 | -5.22
CNC(=O)c1cc(Oc2ccc(NC(=O)Nc3ccc(Cl)c(C(F)(F)F)c3)c(F)c2)ccn1 [Regorafenib (BAY 73-4506), Regorafenib] | -0.029 | -0.026 | -1.50 | 0.099 | 0.102 | 6.17
CONC(=O)Nc1ccc(-c2sc3c(c2CN(C)C)c(=O)n(-c2ccc(OC)nn2)c(=O)n3Cc2c(F)cccc2F)cc1 [Relugolix] | 0.366 | -0.004 | 10.15 | -0.169 | -0.015 | -5.58
C[n+]1cc2c3c(ccc2c2ccc4cc5c(cc4c21)OCO5)OCO3 [Sanguinarine chloride] | -0.105 | -0.086 | -5.31 | -0.160 | -0.020 | -5.46
CCOC(=O)[C@@H](N)Cc1ccc(-c2cc(O[C@H](c3ccc(Cl)cc3-n3ccc(C)n3)C(F)(F)F)nc(N)n2)cc1 [Telotristat etiprate (LX 1606 Hippurate), Telotristat etiprate] | -0.136 | -0.122 | -7.19 | 0.064 | 0.093 | 4.83
